# In patent publication US10449245B2 (priority 2014, dated 2019):
# Several values for one entry are separate records, joined by “and”; a condition that tells them apart may be missing. Identical values can stand only once.
# What was measured:
# HIV-1 [1] = experiment: Plasma HIV-1 RNA by transcription mediated amplification (TMA) NAT screen, REDUC Part A; format: in vivo, human; conditions: for TMA assay, Percent positive: share of subjects positive; for TMA assay, Percent positive / TMA assay, presence of HIV RNA: romidepsin 5 mg/m^2 i.v. days 0, 7, 14; for TMA assay, presence of HIV RNA: individual subjects 1101, 1102, 1103, 1105, 1106, 1107 = c1-c6
# [2] = human, in vivo
# Description: Part A of the clinical study contained three phases. First, a pre-treatment phase of 2-4 weeks (visit 1-visit 2a) to confirm the stability of the latent HIV-1 reservoir and determine baseline HIV-1 T lymphocyte specific immunity. Second, a viral reactivation phase of 3 weeks (visit 2 to visit 7) consisting of one cycle of romidepsin infusions at a dosing of 5 mg/m^2 administered intravenously over a 4 hour period. De-escalation down to 2.5 mg/m^2 was planned in case of dose-limiting toxicity was observed. Romidepsin was infused on days 0, 7, and 14. Third, a post-activation phase of ˜9 weeks (visit 8 to visit 11) to assess the effect of romidepsin on the size of latent HIV-1I reservoir.
# The primary objective of this part of the study was to evaluate the safety and tolerability of romidepsin at a reduced dosing of 5 mg/m^2 in HIV-infected patients.
# The primary endpoint of this part was safety and tolerability; evaluation as measured by adverse events (AE), adverse reactions (AR), serious adverse events (SAE), serious adverse reactions (SAR), serious unexpected adverse reactions (SUSAR).
# HIV-1 [3] = experiment: Plasma HIV RNA quantitative viral load (Cobas TaqMan HIV-1 Test v2.0), REDUC Part A; format: in vivo, human; conditions: for HIV VL: individual subjects 1101, 1102, 1103, 1105, 1106, 1107 = c1-c6, romidepsin 5 mg/m^2 i.v. days 0, 7, 14
# Description: Part A of the clinical study contained three phases. […] Second, a viral reactivation phase of 3 weeks (visit 2 to visit 7) consisting of one cycle of romidepsin infusions at a dosing of 5 mg/m^2 administered intravenously over a 4 hour period. De-escalation down to 2.5 mg/m^2 was planned in case of dose-limiting toxicity was observed. Romidepsin was infused on days 0, 7, and 14. Third, a post-activation phase of ˜9 weeks (visit 8 to visit 11) to assess the effect of romidepsin on the size of latent HIV-1I reservoir.
# Plasma HIV RNA, quantitative viral load, was measured by Cobas® TaqMan® HIV-1 Test, v2.0 (Roche) according the manufacturer's instruction (routine clinical assay). The lower limit of quantification for this assay is 20 copies HIV-1 RNA/mL, but it provides a qualitative assessment below this.
# [4] = visit 1 (day −21, pre-treatment)
# [5] = visit 2A (day 0, pre-treatment)
smiles,measurement,setting,value
"C/C=C1\NC(=O)[C@H]2CSSCC/C=C/[C@H](CC(=O)N[C@H](C(C)C)C(=O)N2)OC(=O)[C@H](C(C)C)NC1=O [romidepsin, (1S,4S,7Z,10S,16E,21R)-7-ethylidene-4,21-bis(1-methylethyl)-2-oxa-12,13-dithia-5,8,20,23-tetraazabicyclo[8.7.6]tricos-16-ene-3,6,9,19,22-pentone]","TMA assay, Percent positive","HIV-1 [1]; Visit 1 (day −21, pre-treatment)",50%
same,"TMA assay, Percent positive","HIV-1 [1]; Visit 2A (day 0, pre-treatment)",50%
same,"TMA assay, Percent positive",HIV-1 [1]; Visit 2B (day 0 + 4 h),67%
same,"TMA assay, Percent positive",HIV-1 [1]; Visit 3 (day 1),83%
same,"TMA assay, Percent positive",HIV-1 [1]; Visit 4 (day 3),83%
same,"TMA assay, Percent positive",HIV-1 [1]; Visit 5A (day 7),50%
same,"TMA assay, Percent positive",HIV-1 [1]; Visit 5B (day 7 + 4 h),100%
same,"TMA assay, Percent positive",HIV-1 [1]; Visit 6 (day 10),100%
same,"TMA assay, Percent positive",HIV-1 [1]; Visit 7A (day 14),50%
same,"TMA assay, Percent positive",HIV-1 [1]; Visit 7B (day 14 + 4 h),67%
same,"TMA assay, Percent positive",HIV-1 [1]; Visit 8 (day 17),100%
same,"TMA assay, Percent positive",HIV-1 [1]; Visit 9 (day 21),33%
same,Plasma HIV-1 RNA detection by transcription-mediated amplification assay,HIV-1 [1]; post-infusion time-points compared with baseline,detected more frequently
same,"TMA assay, presence of HIV RNA",HIV-1 [1]; [4],1 (3×) and 0 (3×)
same,"TMA assay, presence of HIV RNA",HIV-1 [1]; [5],1 (3×) and 0 (3×)
same,"TMA assay, presence of HIV RNA",HIV-1 [1]; visit 2B (day 0 + 4 h),1 (4×) and 0 (2×)
same,"TMA assay, presence of HIV RNA",HIV-1 [1]; visit 3 (day 1),1 (5×) and 0
same,"TMA assay, presence of HIV RNA",HIV-1 [1]; visit 4 (day 3),1 (5×) and 0
same,"TMA assay, presence of HIV RNA",HIV-1 [1]; visit 5A (day 7),1 (3×) and 0 (3×)
same,"TMA assay, presence of HIV RNA",HIV-1 [1]; visit 5B (day 7 + 4 h),1
same,"TMA assay, presence of HIV RNA",HIV-1 [1]; visit 6 (day 10),1
same,"TMA assay, presence of HIV RNA",HIV-1 [1]; visit 7A (day 14),1 (3×) and 0 (3×)
same,"TMA assay, presence of HIV RNA",HIV-1 [1]; visit 7B (day 14 + 4 h),1 (4×) and 0 (2×)
same,"TMA assay, presence of HIV RNA",HIV-1 [1]; visit 8 (day 17),1
same,"TMA assay, presence of HIV RNA",HIV-1 [1]; visit 9 (day 21),0 (4×) and 1 (2×)
same,grade II AEs,[2],Two
same,"extracellular HIV RNA, change",HIV-1 [3]; as a result of romidepsin infusion,significantly increased
same,plasma HIV-1 RNA,HIV-1 [3]; at baseline,< 20 copies/mL
same,patients with plasma HIV-1 RNA increased to readily quantifiable levels,HIV-1 [3]; at multiple post-infusion time-points,5 of 6
same,plasma HIV-1 RNA,"HIV-1 [3]; range following the second infusion, standard clinical assay",46-103 copies/mL
same,HIV VL,HIV-1 [3]; [4],LOQ (LOQ = “detectable” not quantifiable HIV RNA<20 c/mL) (3×) and 40 HIV RNA copies/mL plasma and LOD (2×)
same,HIV VL,HIV-1 [3]; [5],LOD
same,HIV VL,HIV-1 [3]; visit 2B (day 0 + 4 h),LOQ (LOQ = “detectable” not quantifiable HIV RNA<20 c/mL) and LOD (5×)
same,HIV VL,HIV-1 [3]; visit 3 (day 1),26 HIV RNA copies/mL plasma and LOD (2×) and LOQ (LOQ = “detectable” not quantifiable HIV RNA<20 c/mL) (2×) and 27 HIV RNA copies/mL plasma
same,HIV VL,HIV-1 [3]; visit 4 (day 3),LOQ (LOQ = “detectable” not quantifiable HIV RNA<20 c/mL) and 32 HIV RNA copies/mL plasma and LOD (4×)
same,HIV VL,HIV-1 [3]; visit 5A (day 7),LOQ (LOQ = “detectable” not quantifiable HIV RNA<20 c/mL) and LOD (5×)
same,HIV VL,HIV-1 [3]; visit 5B (day 7 + 4 h),21 HIV RNA copies/mL plasma and LOD (3×) and 54 HIV RNA copies/mL plasma and LOQ (LOQ = “detectable” not quantifiable HIV RNA<20 c/mL)
same,HIV VL,HIV-1 [3]; visit 6 (day 10),59 HIV RNA copies/mL plasma and 74 HIV RNA copies/mL plasma and LOQ (LOQ = “detectable” not quantifiable HIV RNA<20 c/mL) and LOD and 46 HIV RNA copies/mL plasma and 103 HIV RNA copies/mL plasma
same,HIV VL,HIV-1 [3]; visit 7A (day 14),LOD (5×) and LOQ (LOQ = “detectable” not quantifiable HIV RNA<20 c/mL)
same,HIV VL,HIV-1 [3]; visit 7B (day 14 + 4 h),LOQ (LOQ = “detectable” not quantifiable HIV RNA<20 c/mL) and LOD (5×)
same,HIV VL,HIV-1 [3]; visit 9 (day 21),LOQ (LOQ = “detectable” not quantifiable HIV RNA<20 c/mL) (3×) and LOD (3×)
same,HIV VL,HIV-1 [3]; visit 10 (day 56),LOD (3×) and 42 HIV RNA copies/mL plasma and LOQ (LOQ = “detectable” not quantifiable HIV RNA<20 c/mL) (2×)
same,HIV VL,HIV-1 [3]; visit 11 (day 84),LOQ (LOQ = “detectable” not quantifiable HIV RNA<20 c/mL) and LOD (4×) and 68 HIV RNA copies/mL plasma
same,HIV VL,HIV-1 [3]; visit V8 (day 17),22 HIV RNA copies/mL plasma and LOD (2×) and LOQ (LOQ = “detectable” not quantifiable HIV RNA<20 c/mL) and 119 HIV RNA copies/mL plasma
